Source: publication PMC8695447, “Novel Small Molecules Capable of Blocking mtRAS-Signaling Pathway” (Frontiers in Oncology, 2021)

Columns and labels:
Format in all cases: cell-based
[1] = test system: cleaved PARP in cancer cells harboring mtRAS; experiment: Western blot, cleaved PARP in cancer cells harboring mtRAS; conditions: 1 μM, 24 h
Experimental: (§1) Approximately 1 × 10^6 cells per well were seeded in a 6-well cell culture plate. After cell adhesion, each compounds were treated for 2 h with indicated concentration and conducted brief washing twice by ice-cold PBS. Cells were lysed by NP40 buffer (50 mM Tris–HCl pH 7.4, 1% NP40, 2 mM EDTA, 150 mM NaCl) in the presence of protease inhibitor cocktail (Roche, #11873580001) and phosphatase inhibitor cocktail (Roche, #04906837001). Each sample was loaded with same amount of total protein and separated by SDS-PAGE gel. After transferred to nitrocellulose membrane, blocking with 5% skim milk (in TBS/T) was followed. […] Chemiluminescence signals were detected by ImageQuant™ LAS 4000 (GE Healthcare).
Figure 4 The effects of (A) SIJ1795 and (B) SIJ1772 on apoptosis induction in cancer cells harboring mtRAS. […] (C) Apoptotic cell population (annexin V-positive) was determined by flow cytometry analysis (n = 3). […] Statistical significance was determined using a one-way ANOVA analysis (*p < 0.05, **p < 0.01, ***p < 0.001).

SW480 (KRAS-G12V) = experiment: Anti-proliferation assay on SW480; conditions: Homo sapiens, SW480; 72 h treatment; average with SD (n = 3, duplicate)
Experimental: Ba/F3-parental, OCI-AML3, U397 cells were purchased from DSMZ. MDA-MB-231, HCT-116, AsPC-1, H358, HT-29, SW480, and DU-145 cells were obtained from KCLB. MDA-MB-468 cells were obtained from ATCC. All cells were maintained in RPMI with 10% FBS and antibiotics. Cells were grown in a humidified 5% CO2 incubator at 37°C. Ba/F3-parental cells were grown in the presence of 10 ng/ml IL-3. NRAS-G12D or NRAS-G12V transformed Ba/F3 cell lines (Ba/F3-NRAS-G12D, and Ba/F3-NRAS-G12V, respectively) were cultured without IL-3, which were established by the procedure described as previously ([30]).
Approximately 3.0 × 10^3 cells/well were seeded in a 96-well cell culture plate. After stabilization, 1/3 serially diluted compound in DMSO was treated to the cell. […] All GI50 values were obtained in duplicate with three independent assays and averages with standard deviation are presented.

[2] = test system: cancer cells with mtRAS including H358, AsPC-1, DU-145, SW480, and MDA-MB-231; experiment: Invasion assay (Boyden chamber assay); conditions: 0.01 µM, 48 h
Experimental: For invasion assay, Boyden chamber assay carried out. Transwell insert was precoated with matrigel (Corning, #354248). Cells were seeded in the transwell chamber insert (8 μm pore size) at a density of 5.0 × 10^5 cells/well after serum starvation for overnight. The cells were incubated with 0.01 μM concentration of each compounds of for 48 h at 37°C. The non-invaded cells were eliminated. Crystal violet solution was used to staining the invaded cells. Cells were observed and photographed with 100× magnification. Stained cells were automatically counted and quantified (n = 3).
Figure 6 The effects of SIJ1795 and SIJ1772 on migration and invasion activities of cancer cells harboring mtRAS. (A) Scratch assay result for cell migration ability determination. Each cell monolayers were scratched and incubated with test compounds at 0.01 μM. After 8 h (MDA-MB-231) or 24 h (DU-145, SW480, HCT-116) or 48 h (AsPC-1) or 72 h (HT-29), cells were stained with crystal violet. Migrated areas were photographed with 40× magnification. Migrated area was determined by ImageJ (n = 3). (B) Boyden chamber assay result for cell invasion ability determination. […] Stained cells were counted by ImageJ (n = 3). Statistical significance was determined using a one-way ANOVA analysis (*p < 0.05, **p < 0.01, ***p < 0.001, ****p < 0.0001).

[3] = test system: cancer cells harboring mtRAS; experiment: Soft agar assay (3D clonogenic assay); conditions: 0.1 μM, 14 days
Experimental: Soft agar assay was conducted for 3D clonogenic assay. On the 0.7% bottom agar, cells were seeded in 6-well plate (5 × 10^3 cells/well) with 0.35% low melting agar (Lonza, #50101) containing the complete media. The cells were treated with indicated compounds for 14 days at 37°C. Colonies were stained by iodonitrotetrazolium chloride (Sigma-Aldrich, I8377) for overnight. The total area of each well was observed without magnification, and the number of colonies of each well were determined using ImageJ software (n = 3).
Figure 8 (A–F) Soft agar assay results for evaluating the effect of SIJ1795 and SIJ1772 on anchorage independent growth abilities on cancer cells harboring mtRAS. Cells were incubated with indicated compounds (0.01 µM or 0.1 µM) for 14 days. After staining with crystal violet, colonies were photographed without magnification. (G–L) Number of colonies (% of control) upon treatment with indicated compounds at 0.1 µM concentration were determined by ImageJ (n = 3, respectively). Statistical significance was calculated by a one-way ANOVA analysis (*p < 0.05, **p < 0.01, ***p < 0.001, ****p < 0.0001).

[4] = test system: phospho-AKT, -MEK, -ERK in cancer cells harboring mtRAS; experiment: Western blot, phospho-AKT, -MEK, -ERK in cancer cells harboring mtRAS; conditions: 0.1, 1, and 10 μM for 2 h
Experimental: as §1, with “followed. The membrane was incubated 4°C for overnight with uniformly diluted primary antibodies at 1:1,000 (v/v) in TBS/T. The following primary antibodies were used: anti-p-AKT (Cell Signaling, #9271), anti-p-ERK1/2 (Cell Signaling, #4370), anti-PARP (Cell Signaling, #9542), anti-GAPDH (Cell Signaling, #5174), anti-p-70S6K1 (Cell Signaling, #9204), anti-p-JNK(Cell Signaling, #9251), anti-p-p38 (Cell Signaling, #9216), and anti-p-MEK1/2 (Santa Cruz, sc-81503).” for “followed.”, “Healthcare). […]” for “Healthcare).”

Row | SMILES | level of cleaved PARP in cancer cells harboring mtRAS [1] | GI50 (SW480 (KRAS-G12V)) [nM] | reduction in invasion capabilities [2] | anchorage independent cell growth [3] | signaling inhibitory activities in cancer cells with mtRAS relative to GNF-7 [4]
1 | Cc1ccc(NC(=O)c2cccc(C(F)(F)F)c2)cc1N1Cc2cnc(Nc3cnn(C4CCN(S(C)(=O)=O)CC4)c3)nc2N(C)C1=O [SIJ1772, N-(4-Methyl-3-(1-methyl-7-((1-(1-(methylsulfonyl)piperidin-4-yl)-1H-pyrazol-4-yl)amino)-2-oxo-1,4-dihydropyrimido[4,5-d]pyrimidin-3(2H)-yl)phenyl)-3-(trifluoromethyl)benzamide] | notably increased | 447 ± 173 | over 50% | suppressed | comparable to those of GNF-7
2 | CCN1CCN(c2cccc(Nc3ncc4c(n3)N(C)C(=O)N(c3cc(NC(=O)c5cccc(C(F)(F)F)c5)ccc3C)C4)c2)CC1 [SIJ1795, N-(3-(7-((3-(4-Ethylpiperazin-1-yl)phenyl)amino)-1-methyl-2-oxo-1,4-dihydropyrimido[4,5-d]pyrimidin-3(2H)-yl)-4-methylphenyl)-3-(trifluoromethyl)benzamide] | notably increased | 245 ± 12 | over 50% | suppressed | comparable to those of GNF-7
